Experimental data as given in ChEMBL document CHEMBL1201862, “PubChem BioAssay data set” (2004).
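Grown in 96-well plates, cells were treated for 48 hours with each compound at five concentrations. Insufficient inhibition: endpoint recorded as highest concentration tested. GI50: concentration for 50% inhibition of growth.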 Calls of active or inactive are those of the source. No stated cut-off is given here; in the data, active = GI50 up to about 1.1 µM and inactive = higher.

Experiments:
Experiment in all cases: NCI anticancer screen, dose series, 48 h
[1] = tested on: HCT-116
[2] = tested on: UO-31
[3] = tested on: 786-0
[4] = tested on: KM12
[5] = tested on: SW-620
[6] = tested on: HL-60
[7] = tested on: SNB-19
[8] = tested on: LOX IMVI
[9] = tested on: CCRF-CEM
[10] = tested on: NCI-H23
[11] = tested on: SK-MEL-5
[12] = tested on: OVCAR-5
[13] = tested on: A498
[14] = tested on: NCI-H226
[15] = tested on: RXF 393
[16] = tested on: UACC-257
[17] = tested on: A549
[18] = tested on: OVCAR-8
[19] = tested on: CAKI-1

Measured: GI50

CC1=NN2C(c3ccc(C)cc3)=CSC2=NC(C)(C)C1
inactive: [1] > 100 µM | [2] > 100 µM | [3] > 100 µM | [4] > 100 µM | [5] > 100 µM | [6] 76.2 µM | [7] > 100 µM | [8] > 100 µM | [9] > 100 µM | [10] > 100 µM | [11] > 100 µM | [12] > 100 µM | [13] > 100 µM | [14] > 100 µM | [15] > 100 µM | [16] > 100 µM | [17] > 100 µM | [18] > 100 µM

CNS(=O)(=O)NNS(=O)(=O)c1ccc(F)cc1
inactive: [1] > 100 µM | [2] > 100 µM | [3] > 100 µM | [4] > 100 µM | [5] > 100 µM | [6] > 100 µM | [7] > 100 µM | [8] > 100 µM | [9] > 100 µM | [10] > 100 µM | [11] > 100 µM | [13] > 100 µM | [14] > 100 µM | [15] > 100 µM | [16] > 100 µM | [17] > 100 µM | [18] > 100 µM | [19] > 100 µM

NCc1c(C(N)=O)ncn1Cc1ccccc1
inactive: [1] > 100 µM | [3] > 100 µM | [5] > 100 µM | [6] > 100 µM | [7] > 100 µM | [8] > 100 µM | [9] > 100 µM | [10] > 100 µM | [11] > 100 µM | [13] > 100 µM | [15] > 100 µM | [16] > 100 µM | [17] > 100 µM | [18] > 100 µM | [19] > 100 µM

O=C(NN1C(=O)CS(=O)(=O)C1c1cccc(F)c1)c1ccncc1 (stereo not given)
inactive: [1] > 100 µM | [3] > 100 µM | [4] > 100 µM | [5] > 100 µM | [6] > 100 µM | [7] > 100 µM | [8] > 100 µM | [10] > 10 µM | [11] > 100 µM | [12] > 100 µM | [13] > 100 µM | [14] > 100 µM | [15] > 100 µM | [16] > 100 µM | [17] > 100 µM | [19] > 100 µM

CCCCCCCCCCCCC/C=C1\C[C@H](O)COC1=O
inactive: [1] 15.9 µM | [2] 18.6 µM | [3] 16 µM | [4] 16.3 µM | [5] 15.4 µM | [6] 19.8 µM | [7] 18.9 µM | [9] 14.3 µM | [10] 20.4 µM | [11] 13.7 µM | [12] 19.2 µM | [13] 18.9 µM | [14] 16.3 µM | [15] 20 µM | [16] 14.8 µM | [17] 19.5 µM | [19] 18.9 µM

N#CC(/C(CCCC(=O)Nc1cccc([N+](=O)[O-])c1)=N\NC(=O)c1c(O)ccc2ccccc12)c1nc2ccccc2s1 (stereo not given)
inactive: [1] 8.43 µM | [2] 14.3 µM | [3] 34.6 µM | [4] 28.8 µM | [5] 44.8 µM | [6] 3.16 µM | [7] 36.8 µM | [9] 5.35 µM | [10] 37.5 µM | [11] 28.2 µM | [12] 37.7 µM | [13] 35.1 µM | [14] 21.9 µM | [15] 33.4 µM | [16] 35.5 µM | [17] 10.8 µM | [18] 18.5 µM | [19] 36.7 µM

COc1ccc(/C=C/C(=O)C(C)(C)CN2CCCCC2)cc1
inactive: [1] 16.2 µM | [2] 17.7 µM | [3] 16 µM | [4] 22.1 µM | [5] 1.13 µM | [6] 18.6 µM | [7] 57.7 µM | [8] 14.9 µM | [9] 24.2 µM | [10] 24.5 µM | [11] 19 µM | [12] 33.7 µM | [13] 16.9 µM | [14] 20.9 µM | [15] 21.3 µM | [16] 17.4 µM | [17] 26.8 µM | [18] 19 µM

[O-]/[N+](=C\c1ccccc1)[C@H](COCc1ccccc1)c1ccccc1
inactive: [1] 40.8 µM | [2] 24.2 µM | [3] > 100 µM | [4] 70.3 µM | [5] > 100 µM | [6] 25.2 µM | [7] 59.8 µM | [8] > 100 µM | [9] 50.6 µM | [10] 4.45 µM | [11] 63.1 µM | [12] > 100 µM | [13] > 100 µM | [15] 36.6 µM | [16] > 100 µM | [17] 51.6 µM | [18] > 100 µM

CC(=O)N(C)c1ccc2c(ccc[n+]2[O-])c1[N+](=O)[O-]
inactive: [1] > 100 µM | [2] > 100 µM | [3] > 100 µM | [4] > 100 µM | [5] > 100 µM | [6] > 100 µM | [8] > 100 µM | [9] > 100 µM | [10] > 100 µM | [11] > 100 µM | [12] > 100 µM | [13] > 100 µM | [14] > 100 µM | [15] > 100 µM | [16] > 100 µM | [17] > 100 µM | [18] > 100 µM | [19] > 100 µM

CN(C)CCNC(=O)c1cccc2nc3c(Cl)cccc3nc12
inactive: [1] 3.16 µM | [2] 8.05 µM | [3] 7.98 µM | [4] 5.75 µM | [5] 3.92 µM | [6] 6.43 µM | [7] 8.13 µM | [8] 3.14 µM | [10] 5.61 µM | [11] 5.06 µM | [12] 7.93 µM | [13] 4.63 µM | [14] 3.55 µM | [15] 3.4 µM | [16] 4.93 µM | [17] 4.33 µM | [18] 4.46 µM | [19] > 20.7 µM

O=C(/C=C\c1cccc2ccccc12)c1ccc(Cl)cc1Cl
inactive: [1] 18.7 µM | [2] 53 µM | [3] 18.7 µM | [4] 17.2 µM | [5] 20 µM | [6] 18.2 µM | [7] 28.8 µM | [9] 17.3 µM | [10] 40.6 µM | [11] 36.7 µM | [12] 24.4 µM | [13] > 100 µM | [14] > 100 µM | [16] 27 µM | [17] 62.1 µM | [18] 18.7 µM | [19] 47.5 µM
